Assay results: article PMC5218480 (PLoS ONE, 2017)

System: MV-4-11 cells
Test: Gene expression microarray analysis (Affymetrix PrimeView) and GSEA
Assay type: cell-based, human
Set-up: RFU PODN (11730768_x_at) / Fold change /veh PODN (11730768_x_at) / RFU LINC00158 (11744669_a_at) / Fold change /veh LINC00158 (11744669_a_at) / RFU DUSP10 (11751237_a_at) / Fold change /veh DUSP10 (11751237_a_at) / RFU ID3 (11757404_x_at) / Fold change /veh ID3 (11757404_x_at) / RFU PLEKHG5 (11737974_s_at) / Fold change /veh PLEKHG5 (11737974_s_at) / RFU LRRC4B (11730491_at) / Fold change /veh LRRC4B (11730491_at) / RFU GIMAP4 (11747438_a_at) / Fold change /veh GIMAP4 (11747438_a_at) / RFU KRT8 (11758183_x_at) / Fold change /veh KRT8 (11758183_x_at) / RFU CNN1 (11734310_a_at) / Fold change /veh CNN1 (11734310_a_at) / RFU VPS37D (11726825_at) / Fold change /veh VPS37D (11726825_at) / RFU C10orf10 (11716522_x_at) / Fold change /veh C10orf10 (11716522_x_at) / RFU KIR2DL2 /// KIR2DL4 /// KIR2DL5A /// KIR2DL5B /// KIR2DS1 /// KIR2DS2 /// KIR2DS3 /// KIR2DS4 /// KIR3DL3 /// KIR3DL3 /// KIR3DS1 (11738374_at) / Fold change /veh KIR2DL2 /// KIR2DL4 /// KIR2DL5A /// KIR2DL5B /// KIR2DS1 /// KIR2DS2 /// KIR2DS3 /// KIR2DS4 /// KIR3DL3 /// KIR3DL3 /// KIR3DS1 (11738374_at) / RFU C1QL1 (11718748_at) / Fold change /veh C1QL1 (11718748_at) / RFU TMPRSS4 (11747572_a_at) / Fold change /veh TMPRSS4 (11747572_a_at) / RFU HAMP (11756126_x_at) / Fold change /veh HAMP (11756126_x_at) / RFU RNFT2 (11725882_a_at) / Fold change /veh RNFT2 (11725882_a_at) / RFU NR4A2 (11747474_a_at) / Fold change /veh NR4A2 (11747474_a_at) / RFU ABCC12 (11746883_a_at) / Fold change /veh ABCC12 (11746883_a_at) / RFU TMEM136 (11760407_x_at) / Fold change /veh TMEM136 (11760407_x_at) / RFU CLDN22 /// WWC2 (11732394_at) / Fold change /veh CLDN22 /// WWC2 (11732394_at) / RFU HLA-DPB1 (11760878_x_at) / Fold change /veh HLA-DPB1 (11760878_x_at) / RFU SPINT1 (11716480_a_at) / Fold change /veh SPINT1 (11716480_a_at) / RFU GAP43 (11754022_s_at) / Fold change /veh GAP43 (11754022_s_at) / RFU A4GNT (11735810_at) / Fold change /veh A4GNT (11735810_at) / RFU PRB3 (11715151_x_at) / Fold change /veh PRB3 (11715151_x_at) / RFU TUBB4B (11761932_at) / Fold change /veh TUBB4B (11761932_at) / RFU CAPN14 (11732068_a_at) / Fold change /veh CAPN14 (11732068_a_at) / RFU TMCC2 (11721928_a_at) / Fold change /veh TMCC2 (11721928_a_at) / RFU IRGQ (11745062_a_at) / Fold change /veh IRGQ (11745062_a_at) / RFU FAM174B (11720279_a_at) / Fold change /veh FAM174B (11720279_a_at) / RFU TMPRSS4 (11748680_a_at) / Fold change /veh TMPRSS4 (11748680_a_at) / RFU FAM212B (11763350_a_at) / Fold change /veh FAM212B (11763350_a_at) / RFU PLEKHG5 (11743358_a_at) / Fold change /veh PLEKHG5 (11743358_a_at) / RFU ZSCAN30 (11745921_a_at) / Fold change /veh ZSCAN30 (11745921_a_at) / RFU CMKLR1 (11741424_a_at) / Fold change /veh CMKLR1 (11741424_a_at) / RFU LOC101060620 /// MAPK8IP1 (11723275_at) / Fold change /veh LOC101060620 /// MAPK8IP1 (11723275_at) / RFU SPTSSB (11747773_x_at) / Fold change /veh SPTSSB (11747773_x_at) / RFU PRSS12 (11739890_at) / Fold change /veh PRSS12 (11739890_at) / RFU BIN1 (11741810_x_at) / Fold change /veh BIN1 (11741810_x_at) / RFU WNT11 (11732464_a_at) / Fold change /veh WNT11 (11732464_a_at) / RFU C10orf10 (11716521_a_at) / Fold change /veh C10orf10 (11716521_a_at) / RFU C5orf56 (11738089_at) / Fold change /veh C5orf56 (11738089_at) / RFU CYB561 (11721691_x_at) / Fold change /veh CYB561 (11721691_x_at) / RFU ANKRD19P (11752326_a_at) / Fold change /veh ANKRD19P (11752326_a_at) / RFU OR2T12 /// OR2T33 /// OR2T8 (11738714_s_at) / Fold change /veh OR2T12 /// OR2T33 /// OR2T8 (11738714_s_at) / RFU VCAN (11748164_a_at) / Fold change /veh VCAN (11748164_a_at) / RFU JSRP1 (11732532_at) / Fold change /veh JSRP1 (11732532_at) / RFU KRTAP10-11 (11738290_x_at) / Fold change /veh KRTAP10-11 (11738290_x_at) / RFU MYO3A (11730013_a_at) / Fold change /veh MYO3A (11730013_a_at) / RFU EBF3 (11725865_a_at) / Fold change /veh EBF3 (11725865_a_at) / RFU CAMK2N1 (11719241_x_at) / Fold change /veh CAMK2N1 (11719241_x_at) / RFU C5orf56 (11738088_a_at) / Fold change /veh C5orf56 (11738088_a_at) / RFU OLFML3 (11715873_a_at) / Fold change /veh OLFML3 (11715873_a_at) / RFU LOC100653217 /// NTM (11731650_a_at) / Fold change /veh LOC100653217 /// NTM (11731650_a_at) / RFU MAPK11 (11762145_a_at) / Fold change /veh MAPK11 (11762145_a_at) / RFU FIZ1 (11724087_x_at) / Fold change /veh FIZ1 (11724087_x_at) / RFU OASL (11726364_x_at) / Fold change /veh OASL (11726364_x_at) / RFU SOX15 (11748057_x_at) / Fold change /veh SOX15 (11748057_x_at) / RFU CD79A (11719716_a_at) / Fold change /veh CD79A (11719716_a_at) / RFU HIST1H1D (11736915_at) / Fold change /veh HIST1H1D (11736915_at) / RFU CASKIN2 (11723855_a_at) / Fold change /veh CASKIN2 (11723855_a_at) / RFU LOC730098 (11760151_x_at) / Fold change /veh LOC730098 (11760151_x_at) / RFU OR4N2 (11742367_at) / Fold change /veh OR4N2 (11742367_at) / RFU PRRT2 (11749266_a_at) / Fold change /veh PRRT2 (11749266_a_at) / RFU SNX32 (11753110_a_at) / Fold change /veh SNX32 (11753110_a_at) / RFU CDHR5 (11726645_a_at) / Fold change /veh CDHR5 (11726645_a_at) / RFU RCAN1 (11760418_a_at) / Fold change /veh RCAN1 (11760418_a_at) / RFU FAM167A (11723789_a_at) / Fold change /veh FAM167A (11723789_a_at) / RFU FAM26E (11764081_at) / Fold change /veh FAM26E (11764081_at) / RFU ISYNA1 (11749810_s_at) / Fold change /veh ISYNA1 (11749810_s_at) / RFU ACY1 (11761880_at) / Fold change /veh ACY1 (11761880_at) / RFU 11764098_at / Fold change /veh 11764098_at / RFU SAMD14 (11745864_x_at) / Fold change /veh SAMD14 (11745864_x_at) / RFU NPB (11741838_a_at) / Fold change /veh NPB (11741838_a_at) / RFU TMPRSS6 (11731388_a_at) / Fold change /veh TMPRSS6 (11731388_a_at) / RFU KRTAP10-2 (11738614_at) / Fold change /veh KRTAP10-2 (11738614_at) / RFU ARHGAP8 /// PRR5-ARHGAP8 (11727945_x_at) / Fold change /veh ARHGAP8 /// PRR5-ARHGAP8 (11727945_x_at) / RFU KRTAP5-7 /// NADSYN1 (11734609_at) / Fold change /veh KRTAP5-7 /// NADSYN1 (11734609_at) / RFU RASL12 (11751679_a_at) / Fold change /veh RASL12 (11751679_a_at) / RFU CDKN2B (11736163_a_at) / Fold change /veh CDKN2B (11736163_a_at) / RFU PRF1 (11729649_at) / Fold change /veh PRF1 (11729649_at) / RFU, ZNF638 /// ZNF638-IT1 / Fold change vs veh, ZNF638 /// ZNF638-IT1 / RFU, PANK3 / Fold change vs veh, PANK3 / RFU, SH3YL1 / Fold change vs veh, SH3YL1 / RFU, ZEB2 / Fold change vs veh, ZEB2 / RFU, NRIP1 / Fold change vs veh, NRIP1 / RFU, PTTG1IP / Fold change vs veh, PTTG1IP / RFU, CAPN2 / Fold change vs veh, CAPN2 / RFU, MED14 / Fold change vs veh, MED14 / RFU, SNORA58 / Fold change vs veh, SNORA58 / RFU, C1orf63 / Fold change vs veh, C1orf63 / RFU, LRRFIP1 / Fold change vs veh, LRRFIP1 / RFU, NDUFAF7 / Fold change vs veh, NDUFAF7 / RFU, SLC12A2 / Fold change vs veh, SLC12A2 / RFU, IBTK / Fold change vs veh, IBTK / RFU, ESF1 / Fold change vs veh, ESF1 / Fold change vs veh, TMEM50B / RFU, TAOK1 / Fold change vs veh, TAOK1 / RFU, ACBD3 / Fold change vs veh, ACBD3 / RFU, TMA16 / Fold change vs veh, TMA16 / RFU, RWDD3 / Fold change vs veh, RWDD3 / RFU, BCAT1 / Fold change vs veh, BCAT1 / RFU, EDEM3 / Fold change vs veh, EDEM3 / RFU, TMEM33 / Fold change vs veh, TMEM33 / RFU, WDR75 / Fold change vs veh, WDR75 / RFU, AHCTF1 / Fold change vs veh, AHCTF1 / RFU, TFRC / Fold change vs veh, TFRC / RFU, ZDHHC17 / Fold change vs veh, ZDHHC17 / RFU, NOM1 / Fold change vs veh, NOM1 / RFU, ARL8B / Fold change vs veh, ARL8B / RFU, ZBTB11 / Fold change vs veh, ZBTB11 / RFU, TAMM41 / Fold change vs veh, TAMM41 / RFU, KIAA1704 /// LOC100996395 / Fold change vs veh, KIAA1704 /// LOC100996395 / RFU, ING1 / Fold change vs veh, ING1 / RFU, TRMT61B / Fold change vs veh, TRMT61B / RFU, FUBP3 / Fold change vs veh, FUBP3 / RFU, TP53 / Fold change vs veh, TP53 / RFU, TNKS2 / Fold change vs veh, TNKS2 / RFU, ZFP14 / Fold change vs veh, ZFP14 / RFU, ACTR2 / Fold change vs veh, ACTR2 / RFU, PPP3R1 / Fold change vs veh, PPP3R1 / RFU, PIK3R1 / Fold change vs veh, PIK3R1 / RFU, HNRNPA1 / Fold change vs veh, HNRNPA1 / RFU, RNF170 / Fold change vs veh, RNF170 / RFU, ZNF28 / Fold change vs veh, ZNF28 / RFU, RNGTT / Fold change vs veh, RNGTT / RFU, OGT / Fold change vs veh, OGT / RFU, BRD1 / Fold change vs veh, BRD1 / RFU, MARS / Fold change vs veh, MARS / RFU, ZNF655 / Fold change vs veh, ZNF655 / RFU, FAHD1 / Fold change vs veh, FAHD1 / RFU, BDP1 / Fold change vs veh, BDP1 / RFU, LRRCC1 / Fold change vs veh, LRRCC1 / RFU, ARID1A / Fold change vs veh, ARID1A / RFU, ZNF146 / Fold change vs veh, ZNF146 / RFU, ZNF330 / Fold change vs veh, ZNF330 / RFU, GPN3 / Fold change vs veh, GPN3 / RFU, C9orf123 / Fold change vs veh, C9orf123 / RFU, N4BP2L2 / Fold change vs veh, N4BP2L2 / RFU, ARFIP1 / Fold change vs veh, ARFIP1 / RFU, FAM179B / Fold change vs veh, FAM179B / RFU, BCL10 / Fold change vs veh, BCL10 / RFU, UHRF1BP1L / Fold change vs veh, UHRF1BP1L / RFU, BET1 / Fold change vs veh, BET1 / RFU, CNOT2 / Fold change vs veh, CNOT2 / RFU, ZNF268 / Fold change vs veh, ZNF268 / Fold change vs veh, ZNF507 / RFU, DGCR2 / Fold change vs veh, DGCR2 / RFU, WDSUB1 / Fold change vs veh, WDSUB1 / Fold change vs veh, HSP90B1 /// MIR3652 / RFU, ADSS / Fold change vs veh, ADSS / RFU, GK / Fold change vs veh, GK / RFU, ZNF148 / Fold change vs veh, ZNF148 / RFU, TAF9 / Fold change vs veh, TAF9 / RFU, SLC1A5 / Fold change vs veh, SLC1A5 / RFU, SLMO2 / Fold change vs veh, SLMO2 / RFU, ABCC4 / Fold change vs veh, ABCC4 / RFU, LOC101060439 /// RAP1B / Fold change vs veh, LOC101060439 /// RAP1B / RFU, RFX7 / Fold change vs veh, RFX7 / RFU, GTPBP10 / Fold change vs veh, GTPBP10 / RFU, CNEP1R1 / Fold change vs veh, CNEP1R1 / RFU, BIVM-ERCC5 /// ERCC5 / Fold change vs veh, BIVM-ERCC5 /// ERCC5 / RFU, ILF3 / Fold change vs veh, ILF3 / RFU 11762660_at / Fold change /veh 11762660_at / RFU VCAN (11757783_s_at) / Fold change /veh VCAN (11757783_s_at) / RFU DDX43 (11728927_at) / Fold change /veh DDX43 (11728927_at) / RFU KRT8 (11758188_x_at) / Fold change /veh KRT8 (11758188_x_at) / RFU NKD1 (11759106_at) / Fold change /veh NKD1 (11759106_at) / RFU SRD5A1 (11742802_a_at) / Fold change /veh SRD5A1 (11742802_a_at) / RFU TPSAB1 /// TPSB2 (11721975_s_at) / Fold change /veh TPSAB1 /// TPSB2 (11721975_s_at) / RFU GSTM3 (11746129_a_at) / Fold change /veh GSTM3 (11746129_a_at) / RFU IL23R (11737362_x_at) / Fold change /veh IL23R (11737362_x_at) / RFU TMEM51 (11727254_a_at) / Fold change /veh TMEM51 (11727254_a_at) / RFU PIWIL2 (11732686_x_at) / Fold change /veh PIWIL2 (11732686_x_at) / RFU ORM1 (11744905_x_at) / Fold change /veh ORM1 (11744905_x_at) / RFU CCDC152 (11743942_at) / Fold change /veh CCDC152 (11743942_at) / RFU ECM1 (11717891_a_at) / Fold change /veh ECM1 (11717891_a_at) / RFU IL23R (11748794_a_at) / Fold change /veh IL23R (11748794_a_at) / RFU TNFAIP8L3 (11732012_x_at) / Fold change /veh TNFAIP8L3 (11732012_x_at) / RFU MBOAT4 (11741988_at) / Fold change /veh MBOAT4 (11741988_at) / RFU 11764193_at / Fold change /veh 11764193_at / RFU TMEM53 (11763286_at) / Fold change /veh TMEM53 (11763286_at) / RFU MAGEB2 (11727129_at) / Fold change /veh MAGEB2 (11727129_at) / RFU TMEM200A (11744735_a_at) / Fold change /veh TMEM200A (11744735_a_at) / RFU CCDC152 (11751479_a_at) / Fold change /veh CCDC152 (11751479_a_at) / RFU FAM211A (11726209_a_at) / Fold change /veh FAM211A (11726209_a_at) / RFU RGS16 (11746705_a_at) / Fold change /veh RGS16 (11746705_a_at) / RFU VCAN (11755009_s_at) / Fold change /veh VCAN (11755009_s_at) / RFU RHOB (11743442_s_at) / Fold change /veh RHOB (11743442_s_at) / RFU RGS16 (11720943_a_at) / Fold change /veh RGS16 (11720943_a_at) / RFU RGS16 (11720944_at) / Fold change /veh RGS16 (11720944_at) / RFU, VPS4B / Fold change vs veh, VPS4B / RFU, CREB1 / Fold change vs veh, CREB1 / RFU, DNAJC13 / Fold change vs veh, DNAJC13 / RFU, GNAQ / Fold change vs veh, GNAQ / RFU, CDK5R1 / Fold change vs veh, CDK5R1 / RFU, ZRANB3 / Fold change vs veh, ZRANB3 / RFU, CUL4A / Fold change vs veh, CUL4A / RFU, CCNY / Fold change vs veh, CCNY / RFU, UFL1 / Fold change vs veh, UFL1 / RFU, COG3 / Fold change vs veh, COG3 / RFU, DIAPH2 / Fold change vs veh, DIAPH2 / RFU, SKA2 / Fold change vs veh, SKA2 / RFU, AFF3 / Fold change vs veh, AFF3 / RFU, LMF1 / Fold change vs veh, LMF1 / RFU, IPO11 / Fold change vs veh, IPO11 / RFU, DFFB / Fold change vs veh, DFFB / RFU, FOXP1 / Fold change vs veh, FOXP1 / RFU, CARD8 / Fold change vs veh, CARD8 / RFU, STRN3 / Fold change vs veh, STRN3 / RFU, ADK / Fold change vs veh, ADK / RFU, RASSF2 / Fold change vs veh, RASSF2 / RFU, WIPF1 / Fold change vs veh, WIPF1 / RFU, LARP1B / Fold change vs veh, LARP1B / RFU, RASA1 / Fold change vs veh, RASA1 / RFU, RB1 / Fold change vs veh, RB1 / RFU, PPFIA1 / Fold change vs veh, PPFIA1 / RFU, MAT2A / Fold change vs veh, MAT2A / RFU, CCT5 / Fold change vs veh, CCT5 / RFU, WDR92 / Fold change vs veh, WDR92 / RFU, CUX1 / Fold change vs veh, CUX1 / RFU, TTC7A / Fold change vs veh, TTC7A / RFU, TMEM135 / Fold change vs veh, TMEM135 / RFU, DEPTOR / Fold change vs veh, DEPTOR / RFU, CPM / Fold change vs veh, CPM / RFU, DNAJB6 / Fold change vs veh, DNAJB6 / RFU, CACNA2D3 / Fold change vs veh, CACNA2D3 / RFU, DTX4 / Fold change vs veh, DTX4 / RFU, TFCP2 / Fold change vs veh, TFCP2 / RFU, GMCL1 /// GMCL1P1 / Fold change vs veh, GMCL1 /// GMCL1P1 / RFU, AEBP2 / Fold change vs veh, AEBP2 / RFU, SNHG1 /// SNORD22 /// SNORD25 /// SNORD26 /// SNORD27 /// SNORD28 /// SNORD29 /// SNORD31 / Fold change vs veh, SNHG1 /// SNORD22 /// SNORD25 /// SNORD26 /// SNORD27 /// SNORD28 /// SNORD29 /// SNORD31 / Fold change (Aza/veh), C12orf56 (ProbeSet 11735607_a_at) / Fold change (ACY-1035/veh), C12orf56 (ProbeSet 11735607_a_at) / Fold change (Aza/veh), FGFR1OP (ProbeSet 11751329_s_at) / Fold change (ACY-1035/veh), FGFR1OP (ProbeSet 11751329_s_at) / Fold change (Aza/veh), VPS36 (ProbeSet 11739960_a_at) / Fold change (ACY-1035/veh), VPS36 (ProbeSet 11739960_a_at) / RFU SYPL1 (11715823_x_at) / Fold change /veh SYPL1 (11715823_x_at) / RFU IGFBP7 (11715501_s_at) / Fold change /veh IGFBP7 (11715501_s_at) / RFU REEP3 (11722064_at) / Fold change /veh REEP3 (11722064_at) / RFU IGLL1 (11728026_x_at) / Fold change /veh IGLL1 (11728026_x_at): dose or concentration left out as unconfirmed
Details: ProbeSet 11755425_a_at; LIST B

For `Nc1ncn([C@@H]2O[C@H](CO)[C@@H](O)[C@H]2O)c(=O)n1` [azacitidine], the “Fold change vs veh, FAM179B” value was 0.87.
